Here are results for three molecules from patent US8802235B2, “Drug and imaging agent delivery compositions and methods” (priority 2012, dated 2014).

One series has as its system B16F10 cells. As to the kind of experiment: cells. The series is classed as cell-based, murine. The method, then:
(§1) B16F10 (lymphatically metastatic murine melanoma), MDA-MB-231 (human breast cancer), and HUVEC (normal human endothelial) cell lines, were maintained in Dulbecco's modified Eagle's medium (DMEM) supplemented with 1% L-Glutamine and 10% bovine growth serum in 5% CO2 atmosphere. The HER2-expressing murine breast cancer cell line, 4T1.2 Neu was maintained in DMEM supplemented with 1% L-Glutamine, 10% bovine growth serum, and 500 μg/mL of G418 (geneticin) in 5% CO2 atmosphere. The lymphatically metastatic human melanoma cell line, A2058 was maintained in low sodium bicarbonate (1.5 g/L) containing DMEM supplemented with 1% L-Glutamine, 10% bovine growth serum in 5% CO2 atmosphere.
(§2) Prior to cell growth inhibition studies, cells were trypsinized and seeded at 3000 cells/well into 96-well tissue culture plates. After 24 hours, geldanamycin, 17-DMAG, 17-AAG, 17-HEAG, Star-GA (GA basis), or melphalan hydrochloride dilutions in 1×PBS (Fisher BioReagents, pH 7.4) with up to 3% DMSO (final well concentration, for the highest drug concentration) were added to the B16F10, A2058, HUVEC, 4T1.2 Neu, or MDA-MB-231 cells (n=8 or 12, 10 μL/well, 8 or 6 concentrations 10^−10 to 10^−3 M, respectively). Solutions of 10% trichloracetic acid was used as a negative control, media was used as a positive control, and 3% DMSO was used as an additional control (n=8 or 12, 10 μL/well). At 72 h post addition, 10 μL of resazurin blue in PBS was added (5 μM final concentration) to each well. After 3 hours, well fluorescence was measured (λex/λem=560/590 nm) (SpectraMax Gemini, Molecular Devices). IC50s were determined using the nonlinear regression curve fit of a one-site competition (GraphPad Prism 10).

The next series concerns A2058 cells. As to the kind of experiment: In vitro cytotoxicity (resazurin blue), A2058. Format: cell-based, human. As to conditions: 72 h; Star-GA on GA basis; read-out: IC50s A2058. As to the method: as §1, §2
(Alamar Blue is a resazurin reagent that responds to reducing activity.)

Another series concerns HUVEC cells. Description: In vitro cytotoxicity (resazurin blue), HUVEC. The settings on record: 72 h; Star-GA on GA basis; read-out: IC50s HUVEC. Format: cell-based, human. As to the method: as §1, §2
The test system of the next series is 4T1.2 Neu cells. As to the kind of experiment: In vitro cytotoxicity (resazurin blue), 4T1.2 Neu. The series is classed as cell-based, murine. As to conditions: 72 h; Star-GA on GA basis; read-out: IC50s 4T1.2 Neu. The method, then: as §1, §2
Series [1] concerns MDA-MB-231 cells. Description: In vitro cytotoxicity (resazurin blue), MDA-MB-231. Format: cell-based, human. The settings on record: 72 h; Star-GA on GA basis; read-out: IC50s MDA-MB-231. As to the method:
as §1
Prior to cell growth inhibition studies, cells were trypsinized and seeded at 3000 cells/well into 96-well tissue culture plates. […] After 3 hours, well fluorescence was measured (λex/λem=560/590 nm) (SpectraMax Gemini, Molecular Devices). IC50s were determined using the nonlinear regression curve fit of a one-site competition (GraphPad Prism 10).

The next series relates to B16F10 tumors. The series is classed as in vivo. As to the method: . The tumors were measured and recorded, the volumes were calculated using the equation: Tumor Volume (mm^3)=0.52×(width)^2×length. When the B16F10 tumors reached 200-350 mm^3 (ca. Days 6-9), mice were randomly divided into five treatment groups: melphalan (i.v., n=5), 17-DMAG (i.v., n=4), star polymer (s.c., n=6), Star-GA (s.c., n=7), or no treatment (n=4) (FIG. 30).
Mice in the melphalan treatment group were injected once with melphalan (5 mg/kg) intravenously via the tail veil under isoflurane anesthesia. The formulation used to treat mice bearing B16F10 tumors was modified slightly from the product insert for ALKERAN (melphalan hydrochloride) for injections into humans. Melphalan was dissolved in concentrated hydrochloric acid (35-38%) to give a 15 mg/mL solution. The melphalan solution was then aliquoted into vials to give 0.75 mg melphalan/vial, and was dried using a speedvac concentrator (Labconoco) for 1.5 hours at 35° C. followed by 1 hour at ambient temperature. The vials containing dry melphalan hydrochloride were sealed and placed at −20° C. until further use. The reconstituted solution was prepared by first pre-sterilizing propylene glycol, 95% ethanol, and 0.02 g/mL sodium citrate solution, using a sterile syringe fitted with a 0.22 μm sterile filter (Millex GP PES membrane sterile filter, Millipore) into a sterile falcon tube. Then the reconstituted solution was prepared by combining 6 mL sterile propylene glycol, 0.52 mL sterile ethanol (95%), and 3.48 mL sodium citrate solution, and the solution was mixed well and filtered a second time with at 0.22 μm sterile filter. Immediately prior to injection, the 150 μL of the sterile reconstituted solution was rapidly added to the melphalan hydrochloride, the vial was immediately shaken vigorously until dissolved, followed by the rapid addition of 150 μL of sterile saline yielding a 2.5 mg/mL melphalan solution. The melphalan was dosed within 10 to 15 minutes after reconstitution to minimize degradation.
17-DMAG was dissolved in sterile DMSO and administered i.v. via the tail vein at a dose of 15 mg/kg (MTD). […]

The test system of a further series is 4T1.2 Neu tumors. Description: Anticancer efficacy in 4T1.2 Neu tumor bearing mice. The settings on record: 17-DMAG i.v. 10 mg/kg, Star-GA s.c. 45 mg/kg. Format: in vivo. The text has this:
During cell preparation of the 4T1.2 Neu cells for implantation, G418 free media was used. Prior to tumor implantation, the hair surrounding the right upper portion of the mouse's chest was removed with depilatory cream. […].
Seven week old (18-22 g) female Balb/c mice purchased from Jackson Laboratory (Bar Harbor, Me.) were used in this study. On Day 7, when tumors reached 100-250 mm^3, mice were randomly divided into four treatment groups, consisting of no treatment (n=7), 60% […] (n=5), 17-DMAG (n=7), and Star-GA (n=8). The 17-DMAG was dosed at 10 mg/kg i.v. as a 1:1 sterile DMSO:PBS solution. Star-GA was dosed at 45 mg/kg (17-HEAG basis, 15% loading, 300 mg/kg Star-GA conjugate), in sterile 35% DMSO and 65% PBS, which was divided into two peritumoral injections on either side of the mammary tumor. Finally, the 60% […] was dosed at an equivalent star polymer concentration used for the 45 mg/kg Star-GA (255 mg/kg 60% […]), which was divided into two peritumoral injections onto either side of the mammary tumor. Tumor volumes were monitored and reported every two days (FIG. 33).
To minimize the occurrence of necrotic tails upon dosing 17-DMAG, as observed in the B16F10 in vivo study described in the previous section, 17-DMAG was dosed at 10 mg/kg i.v. in a 1:1 sterile DMSO:PBS solution rather than 15 mg/kg in 100% DMSO.

The conditions of series [2]: 17-DMAG i.v.; cited from earlier work.
A short description of series [3]: Metastatic analysis of axillary lymph nodes by nodal volume and rtPCR. As to conditions: one mouse.
Protocol: The metastatic state of the 4T1.2 Neu tumor model post treatment was assessed by axillary lymph node volume and the nodal HER 2 expression.
The total RNAs from the frozen lymph node samples were extracted using TriZol reagent (Invitrogen). The first-strand cDNA was synthesized using the Omniscript-RT Kit (QIAGEN, Valencia, Calif.). Primers for the Erbb2 (HER2 RT^2 qpCR primer assay, proprietary primer sequence, QIAGEN) and 18S housekeeping gene (forward: 5′-[sequence]-3′ reverse: 5′-[sequence]-3′) (IDT Inc, Coralville, Iowa) were used. The real-time PCR, in a reaction volume of 25 μL, was performed using the SYBR Green Supermix kit with the Bio-Rad iQ5 system (Hercules, Calif.).
During the lymph node harvesting, gross visualization of the organs was made to identify any obvious signs of metastases, growths, or toxicities associated with any of the treatments.
Series [4] deals with MCF-7 cells. As to the kind of experiment: Cell growth inhibition (resazurin blue), MCF-7. Format: cell-based, human. The settings on record: 72 hours after drug addition. The method, then:
Plates were seeded with 3,000 cells/well in 100 μL of media (12 replicates/sample). Drug or conjugate solutions were applied after 24 hours. […] The in vitro anti-proliferative activities of cisplatin, NO-donating prodrug, and their star polymer-based conjugates, including acid-Pt, acid-NO, and combinational acid-Pt/acid-NO were evaluated in cell culture using a human breast cancer cell line, MCF-7. […] The acid-Pt appeared to be less cytotoxic than cisplatin in the cells. This is likely due to the slow release of the active drug, which was not unexpected for a sustained-delivery platform. One of the obstacles that has not yet been overcome in infusion chemotherapy is the poor tumor penetration and accumulation of small-molecule anti-cancer agents. Usually the majority of the chemotherapeutics have been cleared from systemic circulation, via the kidneys, before a significant concentration of the anti-cancer agent is achieved in the tumorigenic tissues. However, the acid-Pt and acid-NO nanoconjugates may greatly enhance the intratumoral drug concentration compared to the normal tissues due to the Enhanced Permeability and Retention effect (EPR), in which nanoformulations tend to penetrate tumors more effectively via leaky, fenestrated tumor blood vessels. […]

For series [5], the system named is MDA-1986 cells. Description: Cell growth inhibition (resazurin blue), MDA-1986. The series is classed as cell-based, human. The settings on record: 72 hours. As to the method:
(§3) Cell growth inhibition was determined in 96-well plates (3,000 cells/well in 100 μL, 12 replicates/sample) using highly invasive human breast cancer cells, MDA-MB-231, non-metastatic human breast cancer cells, MDA-MB-468, and highly invasive human head and neck squamous cell cancer cells positive for epithelia growth factor receptor, MDA-1986. Drug or conjugate solutions were applied after 24 hours, and 72 hours post-addition, resazurin blue in 10 μL of PBS was applied to each well (final concentration 5 μM).

Another series relates to MDA-MB-468 cells. Description: Cell growth inhibition (resazurin blue), MDA-MB-468. The series is classed as cell-based, human. As to conditions: 72 hours. As to the method:
as §3

Series [6] has as its system MDA-MB-231 cells. As to the kind of experiment: Cell growth inhibition (resazurin blue), MDA-MB-231. Format: cell-based, human. The settings on record: 72 hours. The method, then:
as §3

For series [7], the system named is MDA-1986 cells. As to the kind of experiment: Nitric oxide release (Griess) in cell culture with MDA-1986 cells. The series is classed as cell-based, human. As to the method: The fluorescence intensity was measured between 520 and 550 nm using a fluorescence microplate reader.
The concentration of nitrite, the stable breakdown product of gaseous nitric oxide, was measured using Griess assay as an indirect measurement of nitric oxide concentration in cell culture media. The assay is based on the reaction between sulfanilamide, N-1-napthyethylenediamine dihydrochloride and nitrite, under acidic conditions to produce a […] azo compound.
(Griess reagent forms a coloured azo dye with nitrite.)

Series [8] has as its system MCF-7 cells.
For series [9] the following is noted: cited from earlier work.

On to `CO[C@H]1/C=C\C=C(/C)C(=O)NC2=CC(=O)C(NCCN(C)C)=C(C[C@@H](C)C[C@H](OC)[C@H](O)[C@@H](C)/C=C(\C)[C@@H]1OC(N)=O)C2=O` [17-DMAG, 17-dimethylaminoethylamino-17-demethoxygeldanamycin], for which the IC50 in the series on B16F10 cells (72 h, Star-GA on GA basis, read-out: IC50s B16F10) stood at 0.25 µM; in the series on A2058 cells, 0.044 µM; with HUVEC cells, 29 µM; in the series on 4T1.2 Neu cells, 0.296 µM; in the series with MDA-MB-231 cells [1], 0.189 µM. For the same molecule, in the series with B16F10 cells (B16F10 cell line), the “increase in in vitro toxicity in comparison to melphalan” value was 400 fold. The “physical signs of toxicities” value in the series with B16F10 tumors (B16F10 study doses) is given as “signs of tail necrosis”. Besides, in the series with B16F10 tumors (melphalan i.v. 5 mg/kg, 17-DMAG i.v. 15 mg/kg, Star-GA s.c. 15 mg/kg DMAG equivalent, polymer s.c. equivalent dose, vs non-treated), the B16F10 tumor response entry is recorded as “did not exhibit statistically significant tumor growth inhibition”. Also, the survival entry with 4T1.2 Neu tumors is “neither 17-DMAG nor star-GA treatments exhibited an increase in survival”. In the series with 4T1.2 Neu tumors (polymer 255 mg/kg), the “4T1.2 Neu tumor response compared to non-treated mice” value is on record as “no statistical significances”. The MTD in series [2] is reported as 15 mg/kg. For the same molecule, the “gross visualization of the organs” value in series [3] was “appeared to have liver metastases”.

As to `O=[N+]([O-])c1ccc(ON=[N+]([O-])N2CCN(CCOCCO)CC2)c([N+](=O)[O-])c1` [NO1, O^2-(2,4-Dinitrophenyl) 1-{[4-(2-(2-hydroxyethoxy))ethyl]piperazin-1-yl}diazen-1-ium-1,2-diolate], the IC50 in the series on MCF-7 cells [4] stood at 48 ± 28 µM; in the series with MDA-1986 cells [5], 33 ± 1 µM; with MDA-MB-468 cells it was 26 ± 4 µM; in the series with MDA-MB-231 cells [6], 32 ± 3 µM. In addition, the “Release half-life” value was determined as 7.1 h with MDA-1986 cells [7] and 7.4 h in the series with MCF-7 cells [8].

As for `[N]=O` [nitric oxide], the half-life in vivo result in series [9] is recorded as “about 5 seconds”.
